For two compounds, IC50, half-life and Papp results are on record in patent US11485728B2, “Small molecules for the treatment of autoimmune diseases and cancer” (Athos Therapeutics, Inc., priority 2020, dated 2022).

One data set concerns the target T1, CYP2C19 (Homo sapiens, UniProt P33261).
T1 construct: from tissue; host or cells: pooled human liver microsomes
The data set can be described thus: CYP-direct inhibition, CYP2C19. It is filed as in vitro ADME.

A further data set concerns the target T2, CYP2C9 (Homo sapiens, UniProt P11712).
T2 construct: from tissue; host or cells: pooled human liver microsomes
The data set can be described thus: CYP-direct inhibition, CYP2C9. It is filed as in vitro ADME.

A short description of data set [1]: In-vitro half-life in rat liver microsomes. It is filed as in vitro ADME. To be noted: Rat liver microsomes 0.5 mg/mL; 1 μg/mL drug; NRS; read-out: Metabolic Half-life. The essentials: (§1)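 Compound at 1 μg/mL final was incubated with 0.5 mg/mL liver microsomes plus NADPH regenerating system at 37° C, sampled in duplicate at 0–60 min. Remaining parent was measured by LC-MS/MS, and half-life was calculated from first-order log-linear regression of % remaining versus time.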

The next data set can be described thus: PAMPA permeability. The note with it: PAMPA, 5 hours at RT.
The target in another data set is T3, CYP2D6 (Homo sapiens, UniProt P10635).
T3 construct: from tissue; host or cells: pooled human liver microsomes
The data set can be described thus: CYP-direct inhibition, CYP2D6. It is filed as in vitro ADME. The note with it: human liver microsome; substrate dextromethorphan; read-out: IC50 CYP-2D6. An outline of the steps: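 Pooled human liver microsomes with a probe cocktail, NADPH-regenerating system, 37° C, 10 min: ethoxy-resorufin 10 μM (CYP1A2), rosiglitazone 100 μM (CYP2C8), S-mephenytoin 300 μM (CYP2C19) and dextromethorphan 50 μM (CYP2D6); substrate levels are cocktail working-solution concentrations. Metabolite formation measured by LC/MS/MS in duplicate; IC50 from variable-slope fit.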

The next data set deals with T4, CYP3A4 (Homo sapiens, UniProt P08684).
T4 construct: from tissue; host or cells: pooled human liver microsomes
Briefly: CYP-direct inhibition, CYP3A4. It is filed as in vitro ADME.

Data set [2] can be described thus: In-vitro half-life in mouse liver microsomes. It is filed as in vitro ADME. The note with it: Mouse liver microsomes 0.5 mg/mL; 1 μg/mL drug; NRS; read-out: Metabolic Half-life. The essentials: as §1
On the technique in general: Microsomes from liver hold many membrane-bound enzymes, among them those of drug oxidation.

Setting [3] is: PAMPA permeability Classification, 20 μM donor.
The mark [4] stands for this setting: Permeability, Pe, 20 μM donor in PBS/MeOH 90:10.

One may read the IC50 as the concentration that gives 50% inhibition. The term half-life denotes how long it takes for the measured level to halve. The Papp is the rate of passage across a membrane or cell layer, normalised by area and donor concentration. A lower Papp goes with poor permeation.

T4 sequence (P08684 whole entry): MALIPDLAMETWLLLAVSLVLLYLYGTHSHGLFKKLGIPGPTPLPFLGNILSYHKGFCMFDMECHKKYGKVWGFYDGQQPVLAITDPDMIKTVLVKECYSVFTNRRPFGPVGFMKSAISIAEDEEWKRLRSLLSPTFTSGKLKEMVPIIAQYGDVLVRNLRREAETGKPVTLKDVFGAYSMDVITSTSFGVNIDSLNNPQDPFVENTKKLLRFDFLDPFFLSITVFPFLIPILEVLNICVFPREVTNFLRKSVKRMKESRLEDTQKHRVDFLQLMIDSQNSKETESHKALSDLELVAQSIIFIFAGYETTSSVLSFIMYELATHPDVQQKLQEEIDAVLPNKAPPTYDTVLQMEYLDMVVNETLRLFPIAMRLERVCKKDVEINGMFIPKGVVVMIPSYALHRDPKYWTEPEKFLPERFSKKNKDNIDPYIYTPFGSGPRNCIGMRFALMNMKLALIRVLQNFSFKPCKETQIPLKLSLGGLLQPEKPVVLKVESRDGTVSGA
T1 sequence (P33261 whole entry): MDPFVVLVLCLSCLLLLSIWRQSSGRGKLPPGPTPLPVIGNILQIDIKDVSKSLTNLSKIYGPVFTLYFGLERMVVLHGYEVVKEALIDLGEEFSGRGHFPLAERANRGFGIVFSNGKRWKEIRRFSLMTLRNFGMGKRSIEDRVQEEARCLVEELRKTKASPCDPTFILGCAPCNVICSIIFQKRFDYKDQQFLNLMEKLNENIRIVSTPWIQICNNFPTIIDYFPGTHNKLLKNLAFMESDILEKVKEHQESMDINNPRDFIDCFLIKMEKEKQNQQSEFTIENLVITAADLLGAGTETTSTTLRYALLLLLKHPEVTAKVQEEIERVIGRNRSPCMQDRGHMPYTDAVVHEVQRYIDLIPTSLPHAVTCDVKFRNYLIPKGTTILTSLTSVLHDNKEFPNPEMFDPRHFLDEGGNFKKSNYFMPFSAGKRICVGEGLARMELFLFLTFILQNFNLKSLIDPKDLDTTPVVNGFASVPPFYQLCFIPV
T3 sequence (P10635 whole entry): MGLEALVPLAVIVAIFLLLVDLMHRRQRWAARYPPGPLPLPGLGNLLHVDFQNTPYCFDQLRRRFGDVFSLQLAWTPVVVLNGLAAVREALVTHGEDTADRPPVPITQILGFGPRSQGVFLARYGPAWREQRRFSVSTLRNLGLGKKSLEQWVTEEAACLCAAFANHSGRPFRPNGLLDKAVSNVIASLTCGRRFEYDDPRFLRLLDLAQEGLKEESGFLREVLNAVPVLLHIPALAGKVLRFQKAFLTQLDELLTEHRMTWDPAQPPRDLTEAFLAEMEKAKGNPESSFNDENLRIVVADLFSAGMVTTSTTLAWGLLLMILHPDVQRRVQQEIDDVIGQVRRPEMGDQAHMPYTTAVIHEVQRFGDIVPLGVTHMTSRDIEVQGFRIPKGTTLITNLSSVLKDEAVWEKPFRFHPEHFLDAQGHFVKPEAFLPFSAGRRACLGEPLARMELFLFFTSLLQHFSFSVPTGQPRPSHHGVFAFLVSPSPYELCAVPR
T2 sequence (P11712 whole entry): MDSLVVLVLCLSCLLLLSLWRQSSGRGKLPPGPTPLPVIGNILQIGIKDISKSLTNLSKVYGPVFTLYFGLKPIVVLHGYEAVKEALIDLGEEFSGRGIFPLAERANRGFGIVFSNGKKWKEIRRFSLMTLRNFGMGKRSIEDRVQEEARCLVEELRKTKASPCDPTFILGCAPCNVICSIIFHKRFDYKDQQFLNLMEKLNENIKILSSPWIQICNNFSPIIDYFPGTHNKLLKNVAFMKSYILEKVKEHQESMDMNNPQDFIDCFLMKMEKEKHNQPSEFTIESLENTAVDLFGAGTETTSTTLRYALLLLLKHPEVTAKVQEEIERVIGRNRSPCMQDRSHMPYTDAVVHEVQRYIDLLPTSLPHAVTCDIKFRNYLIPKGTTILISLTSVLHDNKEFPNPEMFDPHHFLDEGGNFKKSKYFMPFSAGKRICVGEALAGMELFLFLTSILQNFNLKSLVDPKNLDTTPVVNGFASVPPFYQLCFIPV

On to `COc1cc2c(NC3CCOCC3)nc(N3CCCN(C)CC3)nc2cc1OCCCN1CCCC1` [Compound 237, 6-methoxy-2-(4-methyl-1,4-diazepan-1-yl)-7-(3-(pyrrolidin-1-yl)propoxy)-N-(tetrahydro-2H-pyran-4-yl)quinazolin-4-amine], for which the half-inhibitory concentration (IC50) was more than 100 µM against CYP2C19, more than 100 µM at CYP2C9, 86.2 µM on CYP2D6 and more than 100 µM against CYP3A4. The results for the half-life at 1 μg/mL in data set [1] and in data set [2] were 22 min and 26.4 min, respectively. Moreover, the Papp at 5 h, 20 μM in the data set “PAMPA permeability” (setting [3]) is less than 0.55 nm/s; in “PAMPA permeability” (setting [4]) it was 0.0431 nm/s.

Regarding `COc1cc2c(NC3CCS(=O)(=O)CC3)nc(N3CCC(F)(F)CC3)nc2cc1C#CCN1CCCC1` [Compound 248, 4-((2-(4,4-difluoropiperidin-1-yl)-6-methoxy-7-(3-(pyrrolidin-1-yl)prop-1-yn-1-yl)quinazolin-4-yl)amino)tetrahydro-2H-thiopyran 1,1-dioxide], the IC50 is more than 100 µM against CYP2C19, more than 100 µM against CYP2C9, 55.9 µM at CYP2D6 and more than 100 µM on CYP3A4. Further, the half-life at 1 μg/mL is 16.9 min in data set [1] and more than 60 min in data set [2]. The values for the Papp at 5 h, 20 μM in “PAMPA permeability” (setting [3]) and in “PAMPA permeability” (setting [4]) were 0.55 to 15 nm/s and 13.2 nm/s, respectively.
